Reference: ChEMBL document CHEMBL1201862, “PubChem BioAssay data set” (2004)
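Assay format: 96-well plates, 48-hour exposure. GI50 marks 50% less growth.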 Active and inactive are the calls of the source. No stated cut-off is given here; in the data, active = GI50 up to about 1.1 µM and inactive = higher.

Legend:
Assay in all cases: NCI anticancer screen, dose series, 48 h
DU-145 = system: DU-145
U-251 = system: U-251
UO-31 = system: UO-31
CCRF-CEM = system: CCRF-CEM
UACC-62 = system: UACC-62
T47D = system: T47D
LOX IMVI = system: LOX IMVI
CAKI-1 = system: CAKI-1
SW-620 = system: SW-620
IGROV-1 = system: IGROV-1
MDA-MB-435 = system: MDA-MB-435
UACC-257 = system: UACC-257
MDA-MB-231 = system: MDA-MB-231
786-0 = system: 786-0
SF-268 = system: SF-268
HCC 2998 = system: HCC 2998
OVCAR-5 = system: OVCAR-5
NCI/ADR-RES = system: NCI/ADR-RES
A549 = system: A549
MCF7 = system: MCF7

Measured: GI50

CO[C@H]1O[C@@H]2OC3(C)CCC4[C@H](C)CCC([C@H]1C)[C@]42OO3 (stereo not given in full)
inactive: DU-145 > 100 µM | U-251 > 100 µM | UO-31 24.8 µM | CCRF-CEM 19.1 µM | UACC-62 > 100 µM | T47D 91.6 µM | LOX IMVI > 100 µM | CAKI-1 > 100 µM | SW-620 > 100 µM | IGROV-1 > 100 µM | MDA-MB-435 > 100 µM | UACC-257 > 100 µM | MDA-MB-231 > 100 µM | 786-0 > 100 µM | SF-268 > 100 µM | HCC 2998 > 100 µM | OVCAR-5 > 100 µM | NCI/ADR-RES 44.2 µM | A549 > 100 µM

COC(=O)c1cc(=O)nc2sc3cccc(C)c3n12
inactive: DU-145 > 100 µM | U-251 22.2 µM | CCRF-CEM 20.2 µM | UACC-62 46.2 µM | T47D 37.8 µM | LOX IMVI 14.8 µM | CAKI-1 24.6 µM | SW-620 30.3 µM | IGROV-1 92 µM | MDA-MB-435 42 µM | UACC-257 65 µM | MDA-MB-231 24.8 µM | 786-0 21.3 µM | SF-268 61.1 µM | MCF7 52.5 µM | OVCAR-5 38 µM | NCI/ADR-RES > 100 µM | A549 46.9 µM

N#Cc1cc(Sc2ccc(N)c(C#N)c2)ccc1N
inactive: DU-145 24.9 µM | U-251 29.3 µM | UO-31 17.7 µM | CCRF-CEM 9.64 µM | UACC-62 14.8 µM | T47D 29 µM | LOX IMVI 15.8 µM | SW-620 13.3 µM | IGROV-1 25.1 µM | MDA-MB-435 2.55 µM | UACC-257 26.9 µM | MDA-MB-231 40.7 µM | 786-0 17.6 µM | SF-268 18 µM | MCF7 15.8 µM | OVCAR-5 29.3 µM | NCI/ADR-RES 13.3 µM | A549 29.9 µM

COc1ccc(-c2nc(-c3cnccn3)n(C3OC(CO)C(O)C(O)C3O)n2)cc1 (stereo not given)
inactive: DU-145 > 100 µM | U-251 > 100 µM | UO-31 > 100 µM | CCRF-CEM > 100 µM | UACC-62 > 100 µM | T47D > 100 µM | LOX IMVI > 100 µM | SW-620 > 100 µM | IGROV-1 > 100 µM | MDA-MB-435 > 100 µM | UACC-257 > 100 µM | MDA-MB-231 > 100 µM | 786-0 > 100 µM | SF-268 > 100 µM | MCF7 > 100 µM | HCC 2998 > 100 µM | OVCAR-5 > 100 µM | NCI/ADR-RES > 100 µM | A549 > 100 µM

COc1cc(CSc2ccc(O)cc2)cc(OC)c1OC
inactive: DU-145 53.2 µM | U-251 29.2 µM | UO-31 14.5 µM | CCRF-CEM > 10 µM | UACC-62 27.4 µM | T47D 22.6 µM | LOX IMVI 59.8 µM | CAKI-1 34.6 µM | SW-620 > 100 µM | IGROV-1 48.5 µM | MDA-MB-435 27.6 µM | UACC-257 39 µM | MDA-MB-231 43.2 µM | 786-0 55.3 µM | SF-268 53.3 µM | MCF7 4.31 µM | OVCAR-5 52.1 µM | NCI/ADR-RES 24.7 µM | A549 48.4 µM

CC(C)(C)[Si](C)(C)OCC1OC(n2cnc3c(N)ncnc32)C(O)C1O (stereo not given)
inactive: DU-145 > 100 µM | U-251 > 100 µM | UO-31 65.6 µM | CCRF-CEM 95.9 µM | UACC-62 22.1 µM | T47D 24.4 µM | LOX IMVI > 100 µM | CAKI-1 > 100 µM | SW-620 > 100 µM | IGROV-1 > 100 µM | MDA-MB-435 > 100 µM | UACC-257 > 100 µM | MDA-MB-231 96.4 µM | 786-0 > 100 µM | SF-268 > 100 µM | MCF7 > 100 µM | OVCAR-5 > 100 µM | NCI/ADR-RES 87.7 µM | A549 > 100 µM

Nc1ccc2c(SCCSc3c4ccccc4nc4cc(N)ccc34)c3ccccc3nc2c1
inactive: DU-145 > 100 µM | U-251 49.3 µM | UO-31 > 100 µM | CCRF-CEM 38.5 µM | UACC-62 > 100 µM | T47D > 100 µM | LOX IMVI > 100 µM | CAKI-1 > 100 µM | SW-620 > 100 µM | IGROV-1 > 100 µM | MDA-MB-435 > 100 µM | UACC-257 > 100 µM | MDA-MB-231 > 100 µM | 786-0 > 100 µM | SF-268 > 100 µM | MCF7 > 100 µM | OVCAR-5 > 100 µM | NCI/ADR-RES > 100 µM | A549 > 100 µM

Cc1nc(N)nc(S)c1CCCNc1ccccc1
inactive: DU-145 76.2 µM | U-251 68.9 µM | UO-31 59.3 µM | CCRF-CEM 28 µM | UACC-62 78.2 µM | T47D 20.4 µM | LOX IMVI 54.5 µM | CAKI-1 > 100 µM | SW-620 > 100 µM | IGROV-1 > 100 µM | MDA-MB-435 74 µM | UACC-257 26.9 µM | MDA-MB-231 > 100 µM | 786-0 > 100 µM | SF-268 62.5 µM | MCF7 38 µM | OVCAR-5 > 100 µM | NCI/ADR-RES > 100 µM | A549 52.2 µM
